Several values for one entry are separate records, joined by “and”; a condition that tells them apart may be missing. Equal values may be shown once. Read-outs that look alike come from different tables or passages of the source.
Molecular target: C. elegans (N2) complex I (NADH:ubiquinone oxidoreductase) (Caenorhabditis elegans, UniProt P24887+Q93873+Q94360)
Experiment: biochemical
Format: biochemical
Details: for remaining activity at 0.125 µM / remaining activity at 0.313 µM / remaining activity at 0.625 µM / remaining activity at 1.5 µM / remaining activity at 3 µM / remaining activity at 15 µM / remaining activity at 37.5 µM / remaining activity at 75 µM: wild-type C. elegans mitochondria, read-out: percent (%) in vitro complex I activity relative to solvent control; for Percent in vitro activity, Complex I (single replicate Rep1-Rep4): 100 µM; for activity at 0.0001 µM / Complex I activity, dose-response data / activity at 0.0005 µM / activity at 0.001 µM / activity at 0.0025 µM / activity at 0.005 µM / activity at 0.013 µM / activity at 0.025 µM / activity at 0.063 µM / activity at 0.125 µM / activity at 0.313 µM / activity at 0.625 µM / activity at 1.5 µM / activity at 3 µM / activity at 15 µM / activity at 37.5 µM / activity at 75 µM: C. elegans; for activity at 0.0001 µM / activity at 0.0005 µM / activity at 0.001 µM / activity at 0.0025 µM / activity at 0.005 µM / activity at 0.013 µM / activity at 0.025 µM / activity at 0.063 µM / activity at 0.125 µM / activity at 0.313 µM / activity at 0.625 µM / activity at 1.5 µM / activity at 3 µM / activity at 15 µM / activity at 37.5 µM / activity at 75 µM: read-out: Complex I activity, dose-response data; for IC50: wild-type (N2) mitochondria, read-out: C. elegans Complex I IC50
Outline: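 Compounds were tested against freeze-thawed isolated mitochondria (0.2 mg/mL protein). NADH:decylubiquinone activity was monitored via DCIP absorbance at 600 nm, and the initial linear slope was normalised to solvent controls.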

[1] = 100 µM compound, relative to solvent control, mean (SEM), read-out: % Activity Complex I
[2] = 100 μM of NPD compound, C. elegans mitochondria, individual biological replicates
[3] = 100 μM of NPD compound, C. elegans mitochondria, mean of four biological replicates, read-out: Percent in vitro activity, Complex I (Mean)
[4] = dose 0.0001 µM, Mean of replicates
[5] = dose 0.0001 µM, individual replicates (Rep)
[6] = dose 0.0005 µM, Mean of replicates
[7] = dose 0.0005 µM, individual replicates (Rep)
[8] = dose 0.001 µM, Mean of replicates
[9] = dose 0.001 µM, individual replicates (Rep)
[10] = dose 0.0025 µM, Mean of replicates
[11] = dose 0.0025 µM, individual replicates (Rep)
[12] = dose 0.005 µM, Mean of replicates
[13] = dose 0.005 µM, individual replicates (Rep)
[14] = dose 0.013 µM, Mean of replicates
[15] = dose 0.013 µM, individual replicates (Rep)
[16] = dose 0.025 µM, Mean of replicates
[17] = dose 0.025 µM, individual replicates (Rep)
[18] = dose 0.063 µM, Mean of replicates
[19] = dose 0.063 µM, individual replicates (Rep)
[20] = dose 0.125 µM, Mean of replicates
[21] = dose 0.125 µM, individual replicates (Rep)
[22] = dose 0.313 µM, Mean of replicates
[23] = dose 0.313 µM, individual replicates (Rep)
[24] = dose 0.625 µM, Mean of replicates
[25] = dose 0.625 µM, individual replicates (Rep)
[26] = dose 1.5 µM, Mean of replicates
[27] = dose 1.5 µM, individual replicates (Rep)
[28] = dose 3 µM, individual replicates (Rep)
[29] = dose 15 µM, individual replicates (Rep)
[30] = dose 37.5 µM, Mean of replicates
[31] = dose 37.5 µM, individual replicates (Rep)
[32] = dose 75 µM, individual replicates (Rep)

Chain of C. elegans (N2) complex I (NADH:ubiquinone oxidoreductase) (Q94360 17-199): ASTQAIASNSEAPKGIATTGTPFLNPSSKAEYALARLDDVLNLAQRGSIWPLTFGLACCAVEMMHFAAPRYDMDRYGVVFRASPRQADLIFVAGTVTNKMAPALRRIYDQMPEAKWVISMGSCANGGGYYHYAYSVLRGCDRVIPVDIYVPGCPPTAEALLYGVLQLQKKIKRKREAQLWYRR
Chain of C. elegans (N2) complex I (NADH:ubiquinone oxidoreductase) (P24887 whole entry): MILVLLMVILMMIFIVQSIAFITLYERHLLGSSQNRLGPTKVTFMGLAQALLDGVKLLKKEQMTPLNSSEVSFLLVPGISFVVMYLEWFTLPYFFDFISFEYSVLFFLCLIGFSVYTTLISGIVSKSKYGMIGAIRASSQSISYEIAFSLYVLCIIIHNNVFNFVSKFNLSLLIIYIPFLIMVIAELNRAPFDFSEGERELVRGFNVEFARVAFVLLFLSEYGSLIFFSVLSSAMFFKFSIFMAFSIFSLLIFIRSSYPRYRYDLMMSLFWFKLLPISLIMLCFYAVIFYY
Chain of C. elegans (N2) complex I (NADH:ubiquinone oxidoreductase) (Q93873 31-482): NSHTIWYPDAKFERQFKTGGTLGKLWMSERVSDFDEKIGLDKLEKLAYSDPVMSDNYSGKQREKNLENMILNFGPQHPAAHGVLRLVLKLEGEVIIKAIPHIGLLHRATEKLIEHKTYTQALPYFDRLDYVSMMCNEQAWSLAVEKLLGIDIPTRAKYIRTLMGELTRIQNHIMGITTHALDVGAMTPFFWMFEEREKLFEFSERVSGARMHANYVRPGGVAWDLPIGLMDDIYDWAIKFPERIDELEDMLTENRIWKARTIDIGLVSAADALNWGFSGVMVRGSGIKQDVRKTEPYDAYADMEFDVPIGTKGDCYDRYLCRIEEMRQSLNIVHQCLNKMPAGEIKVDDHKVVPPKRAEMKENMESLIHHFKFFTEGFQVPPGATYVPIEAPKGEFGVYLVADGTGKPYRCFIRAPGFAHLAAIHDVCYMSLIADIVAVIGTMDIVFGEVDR

COc1cc2c(cc1OC)C(/C=C/c1ccc(N(C)C)cc1)=NCC2 [NPD6303]
remaining activity at 0.125 µM (mean of replicates): 93.1%
remaining activity at 0.125 µM (single replicate): 103%
remaining activity at 0.313 µM (mean of replicates): 88%
remaining activity at 0.313 µM (single replicate): 83.6%
remaining activity at 0.625 µM (mean of replicates): 108%
remaining activity at 0.625 µM (single replicate): 106%
remaining activity at 1.5 µM (mean of replicates): 100%
remaining activity at 1.5 µM (single replicate): 100%
remaining activity at 3 µM (mean of replicates): 89.5%
remaining activity at 3 µM (single replicate): 82.5%
remaining activity at 15 µM (mean of replicates): 47.6%
remaining activity at 37.5 µM (mean of replicates): 15%
remaining activity at 75 µM (mean of replicates): 9.53%
activity at 100 µM [1]: 12.7%
Percent in vitro activity, Complex I (single replicate Rep1-Rep4) [2]: 10.460% and 12.057% and 12.075%
activity at 100 µM (100 μM of NPD compound, C. elegans mitochondria, individual biological replicates, read-out: Percent in vitro activity, Complex I (single replicate Rep1-Rep4)): 16.4%
activity at 100 µM [3]: 12.7%
activity at 0.0001 µM [4]: 98.7%
Complex I activity, dose-response data [5]: 97.469 and 99.188
activity at 0.0001 µM [5]: 101%
activity at 0.0005 µM [6]: 100%
activity at 0.0005 µM [7]: 100%
activity at 0.001 µM [8]: 98.7%
Complex I activity, dose-response data [9]: 94.995 and 103.570
activity at 0.001 µM [9]: 101%
activity at 0.0025 µM [10]: 103%
Complex I activity, dose-response data [11]: 97.419 and 110.831
activity at 0.0025 µM [11]: 106%
activity at 0.005 µM [12]: 99.6%
Complex I activity, dose-response data [13]: 94.468 and 104.617
activity at 0.005 µM [13]: 105%
activity at 0.013 µM [14]: 97.2%
Complex I activity, dose-response data [15]: 91.183 and 107.524
activity at 0.013 µM [15]: 98.9%
activity at 0.025 µM [16]: 97.1%
Complex I activity, dose-response data [17]: 90.226 and 107.714
activity at 0.025 µM [17]: 100%
activity at 0.063 µM [18]: 95.9%
Complex I activity, dose-response data [19]: 89.273 and 101.913
activity at 0.063 µM [19]: 103%
activity at 0.125 µM [20]: 93.1%
Complex I activity, dose-response data [21]: 87.998 and 93.858
activity at 0.125 µM [21]: 103%
activity at 0.313 µM [22]: 88%
Complex I activity, dose-response data [23]: 86.077 and 96.329
activity at 0.313 µM [23]: 83.6%
activity at 0.625 µM [24]: 108%
Complex I activity, dose-response data [25]: 108.371 and 107.823
activity at 0.625 µM [25]: 106%
activity at 1.5 µM [26]: 100%
activity at 1.5 µM [27]: 100%
activity at 3 µM (dose 3 µM, Mean of replicates): 89.5%
Complex I activity, dose-response data [28]: 88.910 and 97.542
activity at 3 µM [28]: 82.5%
activity at 15 µM (dose 15 µM, Mean of replicates): 47.6%
Complex I activity, dose-response data [29]: 33.770 and 49.973 and 56.558
activity at 37.5 µM [30]: 15%
Complex I activity, dose-response data [31]: 10.655 and 12.339 and 24.559
activity at 75 µM (dose 75 µM, Mean of replicates): 9.53%
Complex I activity, dose-response data [32]: 11.807 and 4.396 and 17.534
IC50: 11.9 µM and 11 µM

COc1cc2c(cc1OC)C(C(C)c1ccc(CC(C)C)cc1)=NCC2 (centres unmarked) [NPD10504]
remaining activity at 0.125 µM (mean of replicates): 92.7%
remaining activity at 0.125 µM (single replicate): 88.8%
remaining activity at 0.313 µM (mean of replicates): 91.5%
remaining activity at 0.313 µM (single replicate): 88.6%
remaining activity at 0.625 µM (mean of replicates): 100%
remaining activity at 0.625 µM (single replicate): 100%
remaining activity at 1.5 µM (mean of replicates): 78.6%
remaining activity at 1.5 µM (single replicate): 76.6%
remaining activity at 3 µM (mean of replicates): 58.9%
remaining activity at 3 µM (single replicate): 61.4%
remaining activity at 15 µM (mean of replicates): 13.5%
remaining activity at 15 µM (single replicate): 12.3%
remaining activity at 37.5 µM (mean of replicates): 12.4%
remaining activity at 75 µM (mean of replicates): 12.3%
activity at 100 µM [1]: 4.22%
Percent in vitro activity, Complex I (single replicate Rep1-Rep4) [2]: 0.000% and 7.255% and 9.637%
activity at 100 µM [3]: 4.22%
activity at 0.0001 µM [4]: 100%
activity at 0.0001 µM [5]: 100%
activity at 0.0005 µM [6]: 95.6%
Complex I activity, dose-response data [7]: 99.245 and 96.022 and 93.047
activity at 0.0005 µM [7]: 94%
activity at 0.001 µM [8]: 95.6%
Complex I activity, dose-response data [9]: 101.885 and 91.805 and 98.125
activity at 0.001 µM [9]: 90.6%
activity at 0.0025 µM [10]: 95.4%
Complex I activity, dose-response data [11]: 105.286 and 89.091 and 95.022
activity at 0.0025 µM [11]: 92.2%
activity at 0.005 µM [12]: 93.5%
Complex I activity, dose-response data [13]: 100.896 and 97.608 and 92.236
activity at 0.005 µM [13]: 83.3%
activity at 0.013 µM [14]: 97.4%
Complex I activity, dose-response data [15]: 86.744 and 107.737 and 98.643 and 96.409
activity at 0.025 µM [16]: 99.6%
Complex I activity, dose-response data [17]: 81.492 and 104.774 and 100.771 and 111.289
activity at 0.063 µM [18]: 97%
Complex I activity, dose-response data [19]: 104.194 and 94.273 and 98.067
activity at 0.063 µM [19]: 91.6%
activity at 0.125 µM [20]: 92.7%
Complex I activity, dose-response data [21]: 100.304 and 94.360 and 87.363
activity at 0.125 µM [21]: 88.8%
activity at 0.313 µM [22]: 91.5%
Complex I activity, dose-response data [23]: 102.145 and 93.069 and 82.299
activity at 0.313 µM [23]: 88.6%
activity at 0.625 µM [24]: 100%
activity at 0.625 µM [25]: 100%
activity at 1.5 µM [26]: 78.6%
Complex I activity, dose-response data [27]: 84.112 and 75.755 and 78.095
activity at 1.5 µM [27]: 76.6%
activity at 3 µM (dose 3 µM, Mean of replicates): 58.9%
Complex I activity, dose-response data [28]: 63.002 and 56.869 and 54.489
activity at 3 µM [28]: 61.4%
activity at 15 µM (dose 15 µM, Mean of replicates): 13.5%
Complex I activity, dose-response data [29]: 13.403 and 18.209 and 10.130
activity at 15 µM [29]: 12.3%
activity at 37.5 µM [30]: 12.4%
Complex I activity, dose-response data [31]: 3.265 and 5.642 and 23.594 and 17.069
activity at 75 µM (dose 75 µM, Mean of replicates): 12.3%
Complex I activity, dose-response data [32]: 2.370 and 3.939 and 26.690 and 16.321
IC50: 3.29 µM and 3.3 µM

COc1ccc(Cc2nccc3cc(OC)c(OC)cc23)cc1OC [Papaverine, reference compound]
remaining activity at 0.125 µM (mean of replicates): 95.7%
remaining activity at 0.313 µM (mean of replicates): 87.5%
remaining activity at 0.313 µM (single replicate): 85.7%
remaining activity at 0.625 µM (mean of replicates): 100%
remaining activity at 0.625 µM (single replicate): 100%
remaining activity at 1.5 µM (mean of replicates): 81.8%
remaining activity at 1.5 µM (single replicate): 81.5%
remaining activity at 3 µM (mean of replicates): 63.8%
remaining activity at 3 µM (single replicate): 67.5%
remaining activity at 15 µM (mean of replicates): 22.1%
remaining activity at 37.5 µM (mean of replicates): 6.94%
remaining activity at 75 µM (mean of replicates): 7.49%
IC50: 4.34 µM

Reference: PMC11079024, “Identification of a family of species-selective complex I inhibitors as potential anthelmintics” (Nature Communications, 2024)
